Data set [1] concerns the target T1, β1-adrenoceptor (Rattus norvegicus, UniProt P18090).
T1 construct: Atria of male SD rats (250 to 400 g in body weight) were isolated; from tissue; host or cells: isolated rat atria
The data set is described as follows: β1-adrenoceptor stimulating effects: increase of heart rate in isolated rat atria (Magnus method). Also noted: species or system SD rats. On the procedure: The experiment for measuring β1-adrenoceptor stimulating effects
Atria of male SD rats (250 to 400 g in body weight) were isolated and the experiment was conducted according to the Magnus method. The preparations with a tension of 0.5 g were exposed to Krebs-Henseleit solution maintained at 37° C. and gassed with a mixture of 95% oxygen and 5% carbon dioxide. The cardiac contractility was measured isometrically with a force-displacement transducer, and heart rate was recorded on a rectigram via a tachometer, and the drug was added cumulatively.

In data set [2] the target is T2, β2-adrenoceptor (Rattus norvegicus, UniProt P10608).
T2 construct: Uteri of pregnant SD rats (pregnancy day 21) were isolated and longitudinal uterine muscle strips; from tissue; host or cells: longitudinal uterine muscle strips of pregnant SD rats
Briefly: β2-adrenoceptor stimulating effects: inhibition of spontaneous contraction of isolated pregnant rat uterus (Magnus method). Particulars: isolated uterine muscle strips of pregnant SD rats (pregnancy day 21). On the procedure:
The experiment for measuring β2-adrenoceptor stimulating effects
Uteri of pregnant SD rats (pregnancy day 21) were isolated and longitudinal uterine muscle strips of approximately 15 mm in length and approximately 5 mm in width free from the basal plate were prepared. The experiment was conducted according to the Magnus method. The preparations with a tension of 0.5 g were exposed to Locke-Ringer solution maintained at 37° C. and gassed with a mixture of 95% oxygen and 5% carbon dioxide. Spontaneous contractions of myometrium were measured isometrically with a force-displacement transducer and recorded on a rectigram. The drug was added cumulatively to the Magnus bath every 5 minutes.

For data set [3], the system named is male ICR rats. The data set is described as follows: Acute toxicity test. The format is in vivo. To be noted: male ICR rats of 4 weeks age, intravenously, 250 mg/kg, during 24 hours after the administration. On the procedure: To male ICR rats of 4 weeks age was administered intravenously N-[2,6-dichloro-4-[2-[[(1S, 2R)-2-hydroxy-2-(4-hydroxyphenyl)-1-methylethyl]amino]ethyl]phenyl]aminoacetic acid at a dose of 250 mg/kg.

In data set [4] the target is β3-adrenoceptor (Mustela putorius furo, UniProt M3YEU4). Briefly: β3-adrenoceptor stimulating effects: relaxation of isolated ferret urinary bladder smooth muscle strips (Magnus method). To be noted: read-out: EC50 (molar concentration producing 50% relaxation of urinary bladder smooth muscle); isolated male ferret urinary bladder strips; 0% = maximal relaxation after 10^−5 M forskolin. On the procedure: The experiment for measuring β3-adrenoceptor stimulating effects
Urinary bladders of male ferrets (1100 to 1400 g in body weight) were isolated and urinary bladder smooth muscle strips of approximately 10 mm in length and approximately 2 mm in width were prepared. The experiment was conducted according to the Magnus method. The preparations with a tension of 1 g were exposed to Krebs-Henseleit solution maintained at 37° C. and gassed with a mixture of 95% oxygen and 5% carbon dioxide. Basal tensions of urinary bladder were measured isometrically with a force-displacement transducer and recorded on a rectigram. The drug was added cumulatively to the Magnus bath every 5 minutes. […] In this experiment, tension of urinary bladder smooth muscle before the addition of the drug was expressed as 100% and tension of maximal relaxation after the addition of 10^−5 molar concentration of forskolin was expressed as 0%.

Molecules are shown by their SMILES. Where a name gives a salt, the structure may show the parent alone. Read-outs that look alike come from different tables or passages of the source.

T1 sequence (P18090 whole entry): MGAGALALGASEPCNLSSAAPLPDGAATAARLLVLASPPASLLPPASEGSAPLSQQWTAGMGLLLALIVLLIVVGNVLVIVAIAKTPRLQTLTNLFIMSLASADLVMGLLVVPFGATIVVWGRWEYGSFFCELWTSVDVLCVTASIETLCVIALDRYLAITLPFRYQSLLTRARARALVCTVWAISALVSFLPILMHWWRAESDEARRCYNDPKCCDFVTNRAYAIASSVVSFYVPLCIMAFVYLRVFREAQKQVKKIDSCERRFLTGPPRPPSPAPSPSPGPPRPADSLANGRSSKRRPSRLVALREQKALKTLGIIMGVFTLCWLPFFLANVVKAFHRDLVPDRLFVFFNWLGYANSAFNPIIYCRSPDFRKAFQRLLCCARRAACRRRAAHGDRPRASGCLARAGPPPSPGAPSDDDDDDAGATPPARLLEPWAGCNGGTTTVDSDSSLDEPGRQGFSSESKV
T2 sequence (P10608 whole entry): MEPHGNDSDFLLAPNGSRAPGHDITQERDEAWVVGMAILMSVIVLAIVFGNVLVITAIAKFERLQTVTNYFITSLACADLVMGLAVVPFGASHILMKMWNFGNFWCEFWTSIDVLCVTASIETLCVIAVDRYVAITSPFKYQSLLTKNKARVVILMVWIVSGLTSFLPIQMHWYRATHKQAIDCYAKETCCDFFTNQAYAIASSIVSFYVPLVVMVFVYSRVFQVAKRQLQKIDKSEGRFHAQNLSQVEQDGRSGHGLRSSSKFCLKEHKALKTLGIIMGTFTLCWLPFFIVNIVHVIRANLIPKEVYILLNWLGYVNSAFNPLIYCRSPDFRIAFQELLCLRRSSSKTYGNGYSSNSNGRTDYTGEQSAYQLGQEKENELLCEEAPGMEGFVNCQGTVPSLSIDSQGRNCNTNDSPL
Chain of β3-adrenoceptor (M3YEU4 entry or part of it): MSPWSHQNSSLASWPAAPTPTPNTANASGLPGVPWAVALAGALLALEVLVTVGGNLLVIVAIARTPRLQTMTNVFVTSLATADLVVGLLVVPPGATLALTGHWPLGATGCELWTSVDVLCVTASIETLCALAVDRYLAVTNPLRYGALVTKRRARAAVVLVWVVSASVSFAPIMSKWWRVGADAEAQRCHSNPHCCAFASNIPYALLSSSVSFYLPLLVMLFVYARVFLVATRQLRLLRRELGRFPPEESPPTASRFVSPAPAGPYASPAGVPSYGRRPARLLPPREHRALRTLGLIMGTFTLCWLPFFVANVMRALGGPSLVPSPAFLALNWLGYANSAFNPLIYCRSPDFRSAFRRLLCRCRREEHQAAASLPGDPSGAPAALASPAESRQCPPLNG

Regarding `C[C@H](NCCc1ccc(N(C)CC(=O)O)cc1)[C@H](O)c1ccc(O)cc1` [Compound 21, N-[4-[2-[[(1S, 2R)-2-Hydroxy-2-(4-hydroxyphenyl)-1-methylethyl]-amino]ethyl]phenyl]-N-methylaminoacetic acid], the results for the EC50 in data set [1] and in data set [2] were 34 µM and 1.6 µM, respectively.

Consider `C[C@H](NCCc1ccc(NCC(=O)O)c(Cl)c1)[C@H](O)c1ccc(O)cc1` [Compound 20, N-[2-Chloro-4-[2-[[(1S, 2R)-2-hydroxy-2-(4-hydroxyphenyl)-1-methylethyl]amino]ethyl]phenyl]aminoacetic acid], for which the EC50 was determined as 23 µM in data set [1] and 3.3 µM in data set [2].

For the compound `C[C@H](NCCc1cc(Br)c(NCC(=O)O)c(Br)c1)[C@H](O)c1ccc(O)cc1` [Compound 29, N-[2,6-Dibromo-4-[2-[[(1S, 2R)-2-hydroxy-2-(4-hydroxyphenyl)-1-methylethyl]amino]ethyl]phenyl]aminoacetic acid], the EC50 in data set [1] was over 100 µM.

For the compound `CCOC(=O)CNc1c(Cl)cc(CCN[C@@H](C)[C@H](O)c2ccc(O)cc2)cc1Cl` [Compound 2, Ethyl N-[2,6-dichloro-4-[2-[[(1S, 2R)-2-hydroxy-2-(4-hydroxy-phenyl)-1-methylethyl]amino]ethyl]phenyl]aminoacetate hydrochloride], the figures for the EC50 in data set [1] and in data set [2] were 0.05 µM and 0.65 µM, respectively.

For `C[C@H](NCCc1ccc(NCC(=O)O)cc1)[C@H](O)c1ccc(O)cc1` [Compound 18, N-[4-[2-[[(1S, 2R)-2-hydroxy-2-(4-hydroxyphenyl)-1-methylethyl]-amino]ethyl]phenyl]aminoacetic acid], the results for the EC50 in data set [1] and in data set [2] were 0.083 µM and 0.65 µM, respectively.

In data set [1], `C[C@H](NCCc1cc(Cl)c(NCC(=O)N(C)C)c(Cl)c1)[C@H](O)c1ccc(O)cc1` [Compound 16, 2-[[2,6-Dichloro-4-[2-[[(1S, 2R)-2-hydroxy-2-(4-hydroxyphenyl)-1-methylethyl]amino]ethyl]phenyl]amino]-N, N-dimethylacetamide hydrochloride] had an EC50 of over 100 µM.

For `C[C@H](NCCc1cc(Cl)c(NCC(=O)N2CCOCC2)c(Cl)c1)[C@H](O)c1ccc(O)cc1` [Compound 32, 4-[2-[[2,6-Dichloro-4-[2-[[(1S, 2R)-2-hydroxy-2-(4-hydroxy-phenyl)-1-methylethyl]amino]ethyl]phenyl]amino]acetyl]morpholine], the EC50 is over 100 µM in data set [1] and 1.7 µM in data set [2].

As to `C[C@H](NCCc1cc(Cl)c(NCC(=O)O)c(Cl)c1)[C@H](O)c1ccc(O)cc1` [Compound 17, N-[2,6-Dichloro-4-[2-[[(1S, 2R)-2-hydroxy-2-(4-hydroxyphenyl)-1-methylethyl]amino]ethyl]phenyl]aminoacetic acid], the EC50 in data set [1] is over 100 µM; in data set [2], 14 µM. The “Death of animals (acute toxicity)” value in data set [3] is “No death of animals was observed”.

In the case of `C[C@H](Cc1ccc(OCC(=O)O)cc1)NC[C@H](O)c1cccc(Cl)c1` [BRL-37344, reference compound], the EC50 in data set [4] amounted to 0.0016 µM; in data set [1] (read-out: EC50 (molar concentration producing 50% increase of heart rate per minute), isolated male SD rat atria, 100% = increase after 10^−8 M isoproterenol) it was 0.27 µM; in data set [2] (read-out: EC50 (molar concentration producing 50% inhibition of uterine contraction)) it was 0.009 µM.

These data come from US6353025B1, “Phenylaminoalkylcarboxylic acid derivatives and pharmaceutical compositions comprising the same” (Kissei Pharmaceutical Co., Ltd., priority 1997, dated 2002).
